Experiment [1] has as its system Interleukin-2 (IL-2) production/release in Jurkat T cells. The experiment can be described thus: Jurkat IL-2 Production Assay (PHA-stimulated, IL-2 AlphaLisa). The experiment is classed as cell-based. To be noted: Homo sapiens, PHA 15 μg/ml, 22 h, inhibition of IL-2 production. An outline of the steps:
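Jurkat E6-1 cells (5*10^5/well, DMEM/F12 with 10% FCS) pretreated 30 min with compound, then stimulated 22 h with 15 μg/ml PHA at 37 °C. IC50 from 8-point 1:3.16 dilution starting at 10 μM.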
Background: Alpha assays give light when donor and acceptor beads are brought close together.

The next experiment concerns the target T1, CRAC channel (Homo sapiens, UniProt Q96D31).
T1 construct: endogenous in cells; host or cells: HEK293 (ECACC), untransfected
The experiment can be described thus: HEK Calcium Influx Assay (FLIPR), inhibition of store-operated Ca2+ entry after thapsigargin store depletion. Type of experiment: cell-based. Conditions: 10 μM compound, HEK293 cells, read-out: % inhib. [@ 10 μM] FLIPR. An outline of the steps:
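HEK293 cells loaded with Calcium-4 dye in Ca2+-free HBS (pH 7.4), stores depleted with 2 μM thapsigargin for 10 min (100 μM EGTA); after 3 mM CaCl2 re-addition and 15 min steady-state, compounds added and FLIPR signal averaged 9.5–10 min post-dose. IC50 from 8-point 1:3.16 dilutions from 10 μM, normalised to DMSO and non-depleted wells.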

T1 sequence (Q96D31 whole entry): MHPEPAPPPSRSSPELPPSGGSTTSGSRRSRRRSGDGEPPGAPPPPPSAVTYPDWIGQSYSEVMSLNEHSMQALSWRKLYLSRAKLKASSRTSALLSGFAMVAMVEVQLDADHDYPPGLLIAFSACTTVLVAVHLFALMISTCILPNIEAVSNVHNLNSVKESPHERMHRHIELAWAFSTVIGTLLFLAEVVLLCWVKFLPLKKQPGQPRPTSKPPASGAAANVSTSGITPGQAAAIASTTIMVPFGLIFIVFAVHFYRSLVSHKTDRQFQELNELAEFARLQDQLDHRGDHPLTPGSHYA

Turning to `Cc1sc(S(C)(=O)=O)nc1N1CCc2[nH]c(-c3c(F)cccc3F)cc2C1` [Example 133, 4-[2-(2,6-Difluoro-phenyl)-4,5,6,7-tetrahydro-1H-pyrrolo[3,2-c]pyridin-5-yl]-5-methyl-2-methylsulfonyl-thiazole], the IC50 (in general, the concentration needed to halve the response being measured) in experiment [1] fell in the range of 0.5 to 1 µM. Also, the inhibition at 10 µM on CRAC channel was more than 70%.

On to `Cc1cc(C(F)(F)F)ncc1N1CCc2[nH]c(C3CCCOC3)cc2C1` (stereo not drawn) [Example 134, 5-[4-Methyl-6-(trifluoromethyl)-pyridin-3-yl]-2-tetrahydro-pyran-3-yl-4,5,6,7-tetrahydro-1H-pyrrolo[3,2-c]pyridine], for which the IC50 in experiment [1] lay in the range of 1 to 5 µM. Besides, the inhibition at 10 µM on CRAC channel was more than 70%.

In the case of `Cc1cc(C)c(-c2cc3c([nH]2)CCN(c2cnc(C(F)(F)F)cc2C)C3)cn1` [Example 135, 2-(4,6-Dimethyl-pyridin-3-yl)-5-[4-methyl-6-(trifluoromethyl)-pyridin-3-yl]-4,5,6,7-tetrahydro-1H-pyrrolo[3,2-c]pyridine], the IC50 in experiment [1] lay within 0.5 to 1 µM. The inhibition at 10 µM at CRAC channel is less than 50%.

As to `Cc1cc(S(=O)(=O)NCC(F)(F)F)ccc1N1CCc2[nH]c(-c3c(F)cccc3F)cc2C1` [Example 136, 4-[2-(2,6-Difluoro-phenyl)-4,5,6,7-tetrahydro-1H-pyrrolo[3,2-c]pyridin-5-yl]-3-methyl-N-(2,2,2-trifluoro-ethyl)-benzenesulfonic acid amide], the IC50 in experiment [1] lay in the range of 1 to 5 µM. Moreover, on CRAC channel, the inhibition at 10 µM was less than 50%.

Regarding `COC1(c2cc(N3CCc4[nH]c(-c5c(F)cccc5F)cc4C3)n(C)n2)CC1` [Example 137, 2-(2,6-Difluoro-phenyl)-5-[5-(1-methoxy-cyclopropyl)-2-methyl-2H-pyrazol-3-yl]-4,5,6,7-tetrahydro-1H-pyrrolo[3,2-c]pyridine], in experiment [1], the IC50 was in the range of 1 to 5 µM. Also, the inhibition at 10 µM at CRAC channel was more than 70%.

With `COc1cc(OC(F)F)ncc1N1CCc2[nH]c(-c3c(F)cccc3F)cc2C1` [Example 140, 5-[6-(Difluoro-methoxy)-4-methoxy-pyridin-3-yl]-2-(2,6-difluoro-phenyl)-4,5,6,7-tetrahydro-1H-pyrrolo[3,2-c]pyridine], the IC50 in experiment [1] was less than 0.5 µM. The inhibition at 10 µM on CRAC channel is more than 70%.

Regarding `Cc1cc(C(F)(F)F)ncc1N1CCc2[nH]c(-c3cncc(F)c3C)cc2C1` [Example 141, 2-(5-Fluoro-4-methyl-pyridin-3-yl)-5-[4-methyl-6-(trifluoromethyl)-pyridin-3-yl]-4,5,6,7-tetrahydro-1H-pyrrolo[3,2-c]pyridine], the IC50 in experiment [1] was less than 0.5 µM. The inhibition at 10 µM on CRAC channel was more than 70%.

With `Cc1cc(S(C)(=O)=O)ncc1N1CCc2[nH]c(-c3c(F)cccc3F)c(F)c2C1` [Example 142, 2-(2,6-Difluoro-phenyl)-3-fluoro-5-(4-methyl-6-methylsulfonyl-pyridin-3-yl)-4,5,6,7-tetrahydro-1H-pyrrolo[3,2-c]pyridine], the IC50 in experiment [1] was less than 0.5 µM. The inhibition at 10 µM on CRAC channel is more than 70%.

As to `CCOc1cc(OC)c(N2CCc3[nH]c(-c4c(F)cccc4F)cc3C2)cn1` [Example 143, 2-(2,6-Difluoro-phenyl)-5-(6-ethoxy-4-methoxy-pyridin-3-yl)-4,5,6,7-tetrahydro-1H-pyrrolo[3,2-c]pyridine], the IC50 in experiment [1] fell in the range of 1 to 5 µM. In addition, at CRAC channel, the inhibition at 10 µM is less than 50%.

The values are drawn from patent US20160151337A1, “ANNELATED PYRROLES AND THEIR USE AS CRAC INHIBITORS” (Grünenthal GmbH, priority 2013, published 2016).
